The source of these data is US20220202822A1, “8-SUBSTITUTED ARYL VINYL XANTHINE DERIVATIVES AND USES THEREOF” (SUNSHINE LAKE PHARMA CO., LTD., priority 2019, published 2022).

Data set [1] is described as follows: Pharmacokinetic evaluation in beagles after intravenous or intragastric administration. Format: in vivo, beagle. On the procedure: The LC/MS/MS system for analysis includes the Agilent 1200 series vacuum degasser, a quaternary pump, an orifice plate sampler, a thermostatted column oven, and an API4000Qtrap triple quadrupole mass spectrometer with an electrospray ionization source (ESI).
Waters xbridge C18, 2.1×50 mm, 3.5 μm column was used for analysis, and 0.5 μL of sample was injected. Analytical conditions: mobile phase consisting of mobile phase A (H2O+2 mM HCOONH4 (ammonium formate) +0.1% FA (formic acid)) and mobile phase B (MeOH (methanol)+2 mM HCOONH4 (ammonium formate)+0.1% FA (formic acid)). Flow rate was 0.7 mL/min.
(§1) The experiment was divided into two groups: one was administered by intravenous injection, and the other was administered by intragastric administration. The compound of the present invention was administered to a test animal in the form of 10% DMA (heating)+60% PEG400+30% saline solution. For the group of intravenous administration, the administration dose was 1 mg/kg, and vein blood samples (0.3 mL) were collected at the time points of 0.083, 0.25, 0.5, 1.0, 2.0, 4.0, 6.0, 8.0 and 24 h after administration. The plasma solutions were collected (EDTA-K2 as anticoagulant) by centrifuging each blood sample at 3,000 rpm or 4,000 rpm for 10 minutes and then kept at −20° C. or −70° C. For the group of intragastric administration, the administration dose was 5 mg/kg, and vein blood samples (0.3 mL) were collected at the time points of 0.25, 0.5, 1.0, 2.0, 5.0, 7.0 and 24 h after administration. The plasma solutions were collected (EDTA-K2 as anticoagulant) by centrifuging each blood sample at 3,000 rpm or 4,000 rpm for 10 minutes and then kept at −20° C. or −70° C.
10 μL of plasma was taken, 120 μL of IS working solution was added to the plasma, and the plasma mixture was vortexed for 2 min. The mixed solution was then centrifuged at 12,000 rpm for 2 min. 80 μL of the supernatant was taken, 140 μL of methanol/H2O (v/v =1/1) was added, and the solution was vortexed for 2 minutes, then 1.0 μL was taken for injection into the LC-MS/MS system. LC-MS/MS method was used to detect the concentration of target compounds, and non-compartment model was used to calculate pharmacokinetic parameters, and the results were shown in table C.

Data set [2] can be described thus: Pharmacokinetic evaluation in rats after intravenous or intragastric administration. To be noted: for AUC(0-inf) / AUC(0-t) / Cmax / MRT inf / Tmax / clearance / half-life: SD, rat, plasma. Format: in vivo, SD rats. As for the experimental part: The LC-MS/MS system for analysis includes the Agilent 1200 series vacuum degasser, a quaternary pump, an orifice plate sampler, a thermostatted column oven, and an API4000Qtrap triple quadrupole mass spectrometer with an electrospray ionization source (ESI).
Waters ACQUITY UPLC CSH C18, 2.1×50 mm, 1.7 μm column was used for analysis, and 0.8 μL of sample was injected. Analytical conditions: mobile phase was H2O+2 mM HCOONH4 (ammonium formate)+0.1% FA (formic acid) (mobile phase A) and MeOH (methanol)+2 mM HCOONH4 (ammonium formate)+0.1% FA (formic acid) (mobile phase B). Flow rate was 0.7 mL/min.
as §1, with “test animal (overnight fast for 12 hours) in the” for “test animal in the”, “1.0, 2.0, 5.0, 7.0 and 24” for “1.0, 2.0, 4.0, 6.0, 8.0 and 24”, “after administration. EDTA-K2 as anticoagulant was added into the blood vessel. The plasma” for “after administration. The plasma”, “were collected by centrifuging” for “were collected (EDTA-K2 as anticoagulant) by centrifuging”, “minutes and kept at” for “minutes and then kept at”
20 μL of plasma was taken, 120 μL of IS working solution was added to the plasma, and the plasma mixture was vortexed for 2 min. The mixed solution was then centrifuged at 12,000 rpm for 2 min. 100 μL of the supernatant was taken, 110 μL of MeOH/H2O (v/v=1/1) was added, and the solution was vortexed for 2 minutes, then 5 μL was taken for inj ection into the LC-MS/MS system.

The target in data set [3] is T1, human adenosine A2A receptor (Homo sapiens, UniProt P29274).
T1 construct: expressed in transfected cells; host or cells: HEK-293
T1 sequence (P29274 whole entry): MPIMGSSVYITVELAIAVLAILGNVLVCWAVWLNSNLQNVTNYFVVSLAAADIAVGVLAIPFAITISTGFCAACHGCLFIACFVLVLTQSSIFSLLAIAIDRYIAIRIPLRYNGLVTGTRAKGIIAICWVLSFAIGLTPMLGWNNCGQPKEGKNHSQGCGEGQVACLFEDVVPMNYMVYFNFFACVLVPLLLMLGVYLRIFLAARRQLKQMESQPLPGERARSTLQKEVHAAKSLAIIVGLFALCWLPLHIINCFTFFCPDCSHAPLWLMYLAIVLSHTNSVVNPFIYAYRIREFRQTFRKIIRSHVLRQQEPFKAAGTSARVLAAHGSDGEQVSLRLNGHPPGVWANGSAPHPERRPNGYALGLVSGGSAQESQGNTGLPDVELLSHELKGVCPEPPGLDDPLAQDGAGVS
The experiment in a line: Antagonizing effect on human adenosine A2A receptor (cAMP, TR-FRET, NECA-stimulated HEK-293 cells). The format is cell-based. To be noted: inhibition of cAMP produced by NECA (3 nM), HEK-293 cells expressing human recombinant A2A receptor. On the procedure:
The experimental system uses human recombinant adenosine A2A receptor, which is stably expressed in HEK-293 cell line. HEK-293 cells were inoculated into culture plate at a density of 1.25×10^5 cells /mL. The medium was changed by modified HBSS solution with pH 7.4, different concentrations of test compounds (10 μM, 1 μM, 0.1 μM, 10 nM, 1 nM, 0.1 nM) and solvents (PBS with 0.1% DMSO) were added, and the plate was incubated at 37° C. for 10 min. cAMP (cyclic adenosine monophosphate) concentration in culture medium was detected by TR-FRET method. NECA was used as a positive control in this experiment, (1) test compounds alone were used to stimulate cells to produce a certain amount of cAMP, and then NECA (0.1 μM) alone was used to stimulate cells to produce a certain amount of cAMP. A test compound is considered to have agonistic activity on adenosine A2A receptor if the test compound alone stimulates cells to produce cAMP more than 50% of the amount of cAMP produced by NECA (0.1 μM) alone. (2) All cells were first incubated with test compounds and then stimulated with NECA (3 nM). In addition, NECA (3 nM) alone was used to stimulate cells to produce a certain amount of cAMP. […] IC50 was calculated using MathIQ™ (ID Business Solutions Ltd., UK) through nonlinear, least squares regression equation analysis.

Where [4] appears, read: beagle, dog, plasma, intravenous injection, 1 mg/kg.
[5] abbreviates: beagle, dog, plasma, po, intragastric administration, 5 mg/kg.
[6] abbreviates: intragastric administration, 5 mg/kg.
The mark [7] stands for this setting: po, intragastric administration, 5 mg/kg.

Usually AUC(0-inf) stands for the area under the concentration-time curve extrapolated to infinity. In general, AUC(0-t) refers to the area under the concentration-time curve up to a stated or last time point. By Cmax is commonly meant the peak of the concentration-time curve. The MRT inf is the average time that molecules of a dose stay in the body. What is called Tmax is the time at which the peak concentration occurs. A word on the clearance: it is a measure of how efficiently the substance is removed, as volume per time. A low value points to a low capacity for elimination. What is called half-life is how long it takes for the measured level to halve. Read a low half-life as rapid decline. Broadly, the IC50 is the midpoint of a concentration-inhibition curve. Turning to `CCn1c(=O)c2c(nc(/C=C/c3ccc(OC4CCS(=O)(=O)CC4)cc3)n2C)n(CC)c1=O` [Example 1, (E)-8-(4-((1,1-dioxidotetrahydro-2H-thiopyran-4-yl)oxy)styryl)-1,3-diethyl-7-methyl-1H-purine-2,6(3H,7H)-dione], in data set [1] (setting [4]), the AUC(0-inf) was 56300 ng·h/mL, the AUC(0-t) is 25400 ng·h/mL, the Cmax was 1870 ng/mL and the MRT inf worked out at 41.5 h. In data set [1] (setting [4]), the time to peak (Tmax) amounted to 1 h, the clearance amounted to 0.296 mL/min/kg and the half-life was 30.5 h. Also, in data set [1] (setting [5]), the AUC(0-inf) came out at 114000 ng·h/mL, the AUC(0-t) was 40300 ng·h/mL, the Cmax was found to be 2530 ng/mL and the MRT inf stood at 54 h. For the same compound, in data set [1] (setting [5]), the Tmax was determined as 4.67 h and the half-life is 36.9 h. The same compound displayed a F in data set [1] (setting [6]) of 38.7%. Besides, in data set [1] (intravenous injection, 1 mg/kg), the Vss turned out to be 0.737 kg⁻¹. Further, in data set [2] (intravenous injection, 1 mg/kg), the AUC(0-inf) was 4360 ng·h/mL, the AUC(0-t) is 4340 ng·h/mL, the Cmax amounted to 879 ng/mL and the MRT inf was 4.26 h. Also, in data set [2] (intravenous injection, 1 mg/kg), the Tmax worked out at 0.083 h, the clearance was found to be 3.82 mL/min/kg, the half-life is 3.35 h and the Vss was found to be 0.977 kg⁻¹. For the same compound, in data set [2] (setting [7]), the AUC(0-inf) stood at 32300 ng·h/mL, the AUC(0-t) was found to be 32100 ng·h/mL, the highest level (Cmax) was 3660 ng/mL and the MRT inf was 5.2 h. Besides, in data set [2] (setting [7]), the Tmax is 1.67 h and the half-life is 3.39 h. In data set [2] (setting [6]), this compound came in with an F of 148.2%. Also, in data set [3], the IC50 came out at 2510 nM.
In data set [2] (intravenous injection, 1 mg/kg), `CCn1c(=O)c2c(nc(/C=C/c3ccc(OC4CCS(=O)(=O)CC4)c(F)c3)n2C)n(CC)c1=O` [Example 2, (E)-8-(4-((1,1-dioxidotetrahydro-2H-thiopyran-4-yl)oxy)-3-fluorostyryl)-1,3-diethyl-7-methyl-1H-purine-2,6(3H,7H)-dione] displayed an AUC(0-inf) of 4230 ng·h/mL, an AUC(0-t) of 4180 ng·h/mL, a Cmax of 985 ng/mL and an MRT inf of 4.35 h. Besides, in data set [2] (intravenous injection, 1 mg/kg), the Tmax is 0.083 h, the clearance came to 3.94 mL/min/kg, the half-life was 4 h and the Vss turned out to be 1.03 kg⁻¹. In data set [2] (setting [7]), this compound came in with an AUC(0-inf) of 24400 ng·h/mL, an AUC(0-t) of 23700 ng·h/mL, a Cmax of 3110 ng/mL and an MRT inf of 5.94 h. In addition, in data set [2] (setting [7]), the Tmax is 1.67 h and the half-life is 4.77 h. Moreover, the F in data set [2] (setting [6]) was 110.2%. Besides, the IC50 in data set [3] amounted to 3250 nM.
Take `CCn1c(=O)c2c(nc(/C=C/c3ccc(OC4CCS(=O)(=O)CC4)nc3)n2C)n(CC)c1=O` [Example 4, (E)-8-(2-(6-((1,1-dioxidotetrahydro-2H-thiopyran-4-yl)oxy)pyridin-3-yl)vinyl)-1,3-diethyl-7-methyl-1H-purine-2,6(3H,7H)-dione]: the IC50 in data set [3] turned out to be 2990 nM.
The same measure, in the same setting: the result for `CCn1c(=O)c2c(nc(/C=C/c3ccc(OC4CCC(F)(F)CC4)cc3)n2C)n(CC)c1=O` [Example 6, (E)-8-(4-((4,4-difluorocyclohexyl)oxy)styryl)-1,3-diethyl-7-methyl-1H-purine-2,6(3H,7H)-dione] reads 1480 nM.
